In article PMC3433420 (PLoS ONE, 2012):
Like-named read-outs stand apart in the source and are kept apart here.

Experiments:
GRB7 SH2 domain [1] = target: T1, GRB7 SH2 domain (Homo sapiens, UniProt Q14451); design: 6X His; thioredoxin; made in house; host or cells: E. coli BL21(DE3)pLysS; details: previous protein microarray data, Figure S5; cited from earlier work
GRB7 SH2 domain [2] = target: T1, GRB7 SH2 domain; test: FP saturation binding assay; details: peptides queried on both FP and PM platforms
SH2 and PTB domains = details: original PM interactions, ref Jones et al. 2006 / Kaushansky et al. Chem and Biol 2008, cited from earlier work
Description: Supplement pone.0044471.s022.xlsx, sheet "Most recent PM interactions" | column: Kd || Supplement pone.0044471.s022.xlsx, sheet "All original PM interactions" | column: Kd

T1 sequence (Q14451 431-527 limits assumed): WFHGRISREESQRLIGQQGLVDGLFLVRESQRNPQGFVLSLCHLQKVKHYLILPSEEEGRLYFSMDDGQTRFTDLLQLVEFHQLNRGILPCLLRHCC

Q: With “FDNLpYYWDQDPPEd [ErbB2 pY1221, N-terminally rhodamine-labeled 13-mer phosphopeptide]” as the substance, how does the “interaction with GRB7 on the PM platform” value (GRB7 SH2 domain [1]) read?
A: only displayed interactions with GRB7 from the PM platform

Q: And the “interaction with GRB7 on the FP platform” value (GRB7 SH2 domain [2])?
A: only displayed interactions with GRB7 from the PM platform

Q: What about the Kd (SH2 and PTB domains; Protein ABL2) of the same substance?
A: 0.5 µM

Q: What about the Kd (SH2 and PTB domains; Protein BLK) of the same substance?
A: 1.2 µM

Q: What about the Kd (SH2 and PTB domains; Protein BLNK) of the same substance?
A: 1.56 µM

Q: What about the Kd (SH2 and PTB domains; Protein BMX) of the same substance?
A: 2 µM

Q: And the Kd (SH2 and PTB domains; Protein FGR)?
A: 2 µM

Q: What about the Kd (SH2 and PTB domains; Protein GRB10) of the same substance?
A: 0.12 µM

Q: What about the Kd (SH2 and PTB domains; Protein GRB14) of the same substance?
A: 1.4 µM

Q: And the Kd (SH2 and PTB domains; Protein ITK)?
A: 1.52 µM

Q: What about the Kd (SH2 and PTB domains; Protein LYN) of the same substance?
A: 0.93 µM

Q: What about the Kd (SH2 and PTB domains; Protein PIK3R1-C) of the same substance?
A: 2 µM

Q: What about the Kd (SH2 and PTB domains; Protein PIK3R1-NC) of the same substance?
A: 1.16 µM

Q: What about the Kd (SH2 and PTB domains; Protein PIK3R2-N) of the same substance?
A: 0.95 µM

Q: What about the Kd (SH2 and PTB domains; Protein PIK3R2-NC) of the same substance?
A: 2 µM

Q: What about the Kd (SH2 and PTB domains; Protein PIK3R3-C) of the same substance?
A: 1.91 µM

Q: And the Kd (SH2 and PTB domains; Protein PIK3R3-N)?
A: 2 µM

Q: And the Kd (SH2 and PTB domains; Protein PIK3R3-NC)?
A: 2 µM

Q: And the Kd (SH2 and PTB domains; Protein PLCG1-C)?
A: 2 µM

Q: And the Kd (SH2 and PTB domains; Protein PLCG1-N)?
A: 1.93 µM

Q: What about the Kd (SH2 and PTB domains; Protein PLCG1-NC) of the same substance?
A: 1.96 µM

Q: And the Kd (SH2 and PTB domains; Protein PLCG2-N)?
A: 2 µM

Q: And the Kd (SH2 and PTB domains; Protein PLCG2-NC)?
A: 2 µM

Q: What about the Kd (SH2 and PTB domains; Protein PTPN11-N) of the same substance?
A: 2 µM

Q: What about the Kd (SH2 and PTB domains; Protein RASA1-N) of the same substance?
A: 0.37 µM

Q: And the Kd (SH2 and PTB domains; Protein RASA1-NC)?
A: 0.9 µM

Q: What about the Kd (SH2 and PTB domains; Protein SH2D3A) of the same substance?
A: 1.28 µM

Q: And the Kd (SH2 and PTB domains; Protein SH2D3C)?
A: 0.16 µM

Q: What about the Kd (SH2 and PTB domains; Protein SH3BP2) of the same substance?
A: 2 µM

Q: What about the Kd (SH2 and PTB domains; Protein SHB) of the same substance?
A: 0.21 µM

Q: What about the Kd (SH2 and PTB domains; Protein SHC1-PTB) of the same substance?
A: 0.17 µM

Q: What about the Kd (SH2 and PTB domains; Protein SHC2-PTB) of the same substance?
A: 0.43 µM

Q: What about the Kd (SH2 and PTB domains; Protein SHD) of the same substance?
A: 2 µM

Q: What about the Kd (SH2 and PTB domains; Protein SHF) of the same substance?
A: 0.34 µM

Q: What about the Kd (SH2 and PTB domains; Protein SLA2) of the same substance?
A: 1.44 µM

Q: What about the Kd (SH2 and PTB domains; Protein SLA) of the same substance?
A: 1.07 µM

Q: And the Kd (SH2 and PTB domains; Protein SOCS1)?
A: 1.23 µM

Q: What about the Kd (SH2 and PTB domains; Protein SRC) of the same substance?
A: 0.035 µM

Q: What about the Kd (SH2 and PTB domains; Protein SUPT6H) of the same substance?
A: 1.57 µM

Q: And the Kd (SH2 and PTB domains; Protein SYK-C)?
A: 2 µM

Q: What about the Kd (SH2 and PTB domains; Protein SYK-N) of the same substance?
A: 0.26 µM

Q: And the Kd (SH2 and PTB domains; Protein SYK-NC)?
A: 0.41 µM

Q: And the Kd (SH2 and PTB domains; Protein TEC)?
A: 0.77 µM

Q: And the Kd (SH2 and PTB domains; Protein TXK)?
A: 1.23 µM

Q: What about the Kd (SH2 and PTB domains; Protein VAV2) of the same substance?
A: 1.75 µM

Q: What about the Kd (SH2 and PTB domains; Protein VAV3) of the same substance?
A: 1.65 µM

Q: What about the Kd (SH2 and PTB domains; Protein YES1) of the same substance?
A: 0.045 µM

Q: And the Kd (SH2 and PTB domains; Protein ZAP70-NC)?
A: 1.44 µM
